This passage reports Activity results from ChEMBL document CHEMBL2074071, “Fluorescent modified phosphatidylcholine floppase activity of reconstituted multidrug resistance-associated protein MRP1” (Biochim Biophys Acta, 2004).

This data set deals with Multidrug resistance-associated protein 1 (Homo sapiens, UniProt P33527). Briefly: TP_TRANSPORTER: translocation from outer to inner leaflet in MRP1-asolectin proteoliposome. In kind it is functional, subcellular.
Sequence of Multidrug resistance-associated protein 1 (P33527 whole entry): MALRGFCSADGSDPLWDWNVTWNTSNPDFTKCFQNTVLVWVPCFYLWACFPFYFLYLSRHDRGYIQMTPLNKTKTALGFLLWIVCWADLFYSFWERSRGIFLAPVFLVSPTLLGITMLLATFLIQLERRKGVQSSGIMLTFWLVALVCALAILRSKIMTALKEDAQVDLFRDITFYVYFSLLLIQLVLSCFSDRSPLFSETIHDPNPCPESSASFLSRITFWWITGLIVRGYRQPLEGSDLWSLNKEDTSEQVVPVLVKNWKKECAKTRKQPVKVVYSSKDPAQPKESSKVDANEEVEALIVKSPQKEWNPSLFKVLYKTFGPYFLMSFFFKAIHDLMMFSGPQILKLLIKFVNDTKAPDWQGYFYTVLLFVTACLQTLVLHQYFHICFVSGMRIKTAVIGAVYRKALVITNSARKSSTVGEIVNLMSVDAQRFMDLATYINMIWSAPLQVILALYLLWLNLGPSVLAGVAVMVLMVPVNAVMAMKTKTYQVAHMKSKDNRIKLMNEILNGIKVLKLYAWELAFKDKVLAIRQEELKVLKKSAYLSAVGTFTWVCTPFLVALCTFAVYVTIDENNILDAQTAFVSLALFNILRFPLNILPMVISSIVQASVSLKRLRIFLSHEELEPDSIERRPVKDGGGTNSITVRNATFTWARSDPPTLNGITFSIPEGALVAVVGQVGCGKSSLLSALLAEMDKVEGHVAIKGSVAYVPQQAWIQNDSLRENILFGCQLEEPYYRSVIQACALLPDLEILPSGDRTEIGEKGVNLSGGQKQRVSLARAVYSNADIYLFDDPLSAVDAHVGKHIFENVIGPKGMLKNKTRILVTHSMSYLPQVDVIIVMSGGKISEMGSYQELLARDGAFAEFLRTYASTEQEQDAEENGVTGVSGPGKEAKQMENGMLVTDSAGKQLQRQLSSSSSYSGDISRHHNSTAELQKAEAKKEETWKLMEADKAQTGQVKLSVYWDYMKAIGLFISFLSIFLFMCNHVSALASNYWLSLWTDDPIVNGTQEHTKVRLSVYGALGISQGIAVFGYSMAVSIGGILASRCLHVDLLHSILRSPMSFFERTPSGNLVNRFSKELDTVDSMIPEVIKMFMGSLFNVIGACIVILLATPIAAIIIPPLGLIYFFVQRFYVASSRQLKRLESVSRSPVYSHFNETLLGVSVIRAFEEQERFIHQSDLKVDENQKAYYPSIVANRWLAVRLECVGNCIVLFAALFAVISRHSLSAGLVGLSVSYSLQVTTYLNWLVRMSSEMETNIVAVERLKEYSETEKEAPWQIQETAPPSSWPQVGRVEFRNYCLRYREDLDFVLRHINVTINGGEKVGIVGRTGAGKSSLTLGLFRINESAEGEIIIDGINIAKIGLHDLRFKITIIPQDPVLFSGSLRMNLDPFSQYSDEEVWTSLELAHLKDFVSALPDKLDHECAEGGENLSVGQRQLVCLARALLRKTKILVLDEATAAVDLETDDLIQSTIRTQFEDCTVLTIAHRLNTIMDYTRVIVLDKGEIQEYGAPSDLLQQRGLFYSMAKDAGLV

Turning to `CCCCCC(=O)OCC(COP(=O)([O-])OCC[N+](C)(C)c1ccc([N+](=O)[O-])c2nonc12)OC(=O)CCCCC` (stereo unspecified), the Activity result was “substrate []”.
